Data: ChEMBL document CHEMBL1131728 (Bioorg Med Chem Lett, 1999)

Target: T1, Aminopeptidase N (Sus scrofa, UniProt P15145)
T1 sequence (P15145 whole entry): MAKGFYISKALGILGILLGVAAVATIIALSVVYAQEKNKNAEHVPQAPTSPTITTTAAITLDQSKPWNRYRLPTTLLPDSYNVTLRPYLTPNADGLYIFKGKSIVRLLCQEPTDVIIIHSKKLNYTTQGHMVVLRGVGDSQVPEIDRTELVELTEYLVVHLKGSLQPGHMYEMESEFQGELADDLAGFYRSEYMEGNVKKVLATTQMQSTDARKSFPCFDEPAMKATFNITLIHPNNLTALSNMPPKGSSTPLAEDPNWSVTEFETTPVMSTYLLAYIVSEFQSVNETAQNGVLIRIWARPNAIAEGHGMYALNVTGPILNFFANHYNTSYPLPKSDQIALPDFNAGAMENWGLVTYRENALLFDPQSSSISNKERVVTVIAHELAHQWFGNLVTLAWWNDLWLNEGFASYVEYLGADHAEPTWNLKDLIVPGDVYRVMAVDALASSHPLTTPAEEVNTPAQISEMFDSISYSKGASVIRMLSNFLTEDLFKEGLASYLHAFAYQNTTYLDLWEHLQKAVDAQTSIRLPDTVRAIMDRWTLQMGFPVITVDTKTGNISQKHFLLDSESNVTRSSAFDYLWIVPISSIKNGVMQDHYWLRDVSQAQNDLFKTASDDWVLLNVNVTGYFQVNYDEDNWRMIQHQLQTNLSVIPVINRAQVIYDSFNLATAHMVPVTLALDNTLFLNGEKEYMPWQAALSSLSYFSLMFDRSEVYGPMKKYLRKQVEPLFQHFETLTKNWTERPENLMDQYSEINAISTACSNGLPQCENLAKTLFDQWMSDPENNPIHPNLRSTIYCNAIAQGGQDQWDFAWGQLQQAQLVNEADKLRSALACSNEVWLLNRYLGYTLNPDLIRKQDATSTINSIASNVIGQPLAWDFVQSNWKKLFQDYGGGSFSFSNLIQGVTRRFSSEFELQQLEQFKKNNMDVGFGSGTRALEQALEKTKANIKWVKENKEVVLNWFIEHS
Assay: Inhibition of pig kidney Aminopeptidase N

Compound	Ki [nM]
N[C@H](CS)c1ccccc1	25
NC(Cc1ccccc1)P(=O)(O)CC(Cc1ccccc1)C(=O)O (stereo unspecified)	190
N[C@H](CS)CCc1ccccc1	27
CC(C)CC(N)P(=O)(O)CC(Cc1ccccc1)C(=O)O (stereo unspecified)	370
C[C@H](N)CS	28
CC(N)[PH](=O)O (stereo unspecified)	8400
NC(Cc1ccccc1)[PH](=O)O (stereo unspecified)	960
CSCCC(N)[PH](=O)O (stereo unspecified)	400
CC(C)CC(N)[PH](=O)O (stereo unspecified)	1200
NC(c1ccccc1)[PH](=O)O (stereo unspecified)	4800
CC(C)C[C@H](N)CS	22
